In ChEMBL document CHEMBL1201862, “PubChem BioAssay data set” (2004):
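Assay format: 96-well plates, 48-hour exposure. Here, GI50 denotes the concentration required for 50% inhibition of growth.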 Calls of active or inactive are those of the source. No stated cut-off is given here; in the data, active = GI50 up to about 1.1 µM and inactive = higher.

What was measured:
Experiment in all cases: inhibition of tumour cell growth, NCI panel, 48 h
[1] = system: T47D
[2] = system: BT-549
[3] = system: KM-20L2
[4] = system: M19-MEL
[5] = system: SNB-78
[6] = system: MCF7
[7] = system: XF498
[8] = system: HOP-18

SMILES	GI50 [1]	GI50 [2]	GI50 [3]	GI50 [4]	GI50 [5]	GI50 [6]	GI50 [7]	GI50 [8]
Oc1ccccc1/C=N/c1ccc(-c2nc3ccccc3s2)cc1	10.4 µM (inactive)	31.8 µM (inactive)						
Cn1c(=O)c2ccccc2c2nc3ccccc3nc21			> 100 µM (inactive)	> 100 µM (inactive)	68.7 µM (inactive)			
NCCC1([N+](=O)[O-])C=CN=CC1 (stereo unspecified)	> 100 µM (inactive)	> 100 µM (inactive)						
COc1ccc(OC)c(C2CCc3nc4nc(N)nc(N)c4cc3C2)c1 (stereo unspecified)	1.94 µM (inactive)	6.9 µM (inactive)				1.89 µM (inactive)		
CC(NNC(=O)c1cc[n+]([BH2-]C#N)cc1)c1cccc(F)c1 (stereo unspecified)	> 100 µM (inactive)	> 100 µM (inactive)				> 100 µM (inactive)		
C[C@]12CCC(=O)C=C1CC[C@@H]1C2CC[C@]2(C)Nc3[nH]ncc3CC12 (stereo partly specified)			> 100 µM (inactive)	> 100 µM (inactive)	> 100 µM (inactive)		> 100 µM (inactive)	
O=C(Nc1ccccc1-c1n[nH]c(S)nc1=O)C(F)(F)F				> 100 µM (inactive)	> 100 µM (inactive)		> 100 µM (inactive)	
CC1CCCCNC1=S (stereo unspecified)	> 10 µM (inactive)	> 10 µM (inactive)				> 10 µM (inactive)		
CCC(C)[C@@H](NC1=C(Cl)C(=O)c2c(O)ccc(O)c2C1=O)C(=O)OC (stereo partly specified)	> 10 µM (inactive)	3.43 µM (inactive)				3.61 µM (inactive)		
Cc1nn(C(=O)Cc2ccccc2)c2c1C(c1ccc3ccccc3c1O)SC(=N)N2 (stereo unspecified)	> 100 µM (inactive)	> 100 µM (inactive)				> 100 µM (inactive)		
CC(C)=CC1CC(=[N+]=[N-])C(=O)C1(C)C (stereo unspecified)			> 100 µM (inactive)	> 100 µM (inactive)	> 100 µM (inactive)		> 100 µM (inactive)	> 100 µM (inactive)
O=C1CS(=O)(=O)C(c2cccc(Oc3ccccc3)c2)N1c1ccccc1 (stereo unspecified)	15.3 µM (inactive)	20.1 µM (inactive)				14.3 µM (inactive)		
CN(CCCCCl)P(=O)(OCc1ccc([N+](=O)[O-])o1)OC[C@H]1O[C@@H](n2cc(F)c(=O)[nH]c2=O)C[C@@H]1O (stereo partly specified)		2.84 µM (inactive)				< 0.0227 µM (active)		
O=c1nc2n(c3nsnc13)CCO2			> 100 µM (inactive)	> 100 µM (inactive)			> 100 µM (inactive)	
Cc1nc2nnc(CCCCCCCCc3nnc4nc(C)[nH]n34)n2[nH]1		> 100 µM (inactive)				> 100 µM (inactive)		
O=C1/C(=C\c2ccccc2)c2ccccc2N1Cc1ccccc1	6.61 µM (inactive)	3.61 µM (inactive)				3.45 µM (inactive)		
O=P(O)(Cc1ccccc1)c1ccccc1-c1ccccc1	> 100 µM (inactive)	> 100 µM (inactive)				> 100 µM (inactive)		
C/C=C1/CN2CC[C@@H]3c4ccccc4N4[C@H](C(=O)OC)[C@H]1C[C@H]2[C@]34/C=C/C1=COC[C@@H]2[C@H]1C[C@H]1c3c(c4ccccc4n3C)C[C@@H]2N1C	4.23 µM (inactive)	4.32 µM (inactive)				4.55 µM (inactive)		
Cn1c2c3ccc(Cl)cc3nc-2c(Cl)c2ccccc21	11.9 µM (inactive)	24.3 µM (inactive)				26.2 µM (inactive)		
O=C1c2ccccc2-c2nnc(-c3ccc(Cl)cc3)cc21	> 10 µM (inactive)	> 10 µM (inactive)				> 10 µM (inactive)		
CCOCC(=O)N[C@H]1CCc2cc(OC(=O)COCC)c(OC)c(OC)c2-c2ccc(SC)c(=O)cc21	> 10 µM (inactive)	0.0752 µM (active)				0.00686 µM (active)		
CC(NC(=O)C(N)CC(=O)O)NC(=O)C1CCC1 (stereo unspecified)	> 100 µM (inactive)	> 100 µM (inactive)				> 100 µM (inactive)		
Cc1cc(N(CCC#N)CCC#N)ccc1/C=C1\SC(=S)NC1=O	66.7 µM (inactive)	37.2 µM (inactive)				54.2 µM (inactive)		
CN1CCOC1(C)CO (stereo unspecified)	> 100 µM (inactive)	> 100 µM (inactive)				> 100 µM (inactive)		
CC(=O)NC1C(OCc2ccccc2)OC(CO)C(O)C1OC(C)C(=O)N[C@@H](C)C(=O)N[C@H](CCC(=O)OCCNc1c2ccccc2nc2cccc([N+](=O)[O-])c12)C(N)=O (stereo partly specified)			0.000175 µM (active)		0.0252 µM (active)			0.000354 µM (active)
C#Cc1ccccc1C(=O)OC			> 100 µM (inactive)				> 100 µM (inactive)	> 100 µM (inactive)
O=C(Nc1ccn(CCOC(=O)c2ccccc2)c(=O)n1)c1ccccc1			> 100 µM (inactive)	> 100 µM (inactive)	> 100 µM (inactive)			> 100 µM (inactive)
C1CN(c2nc3c(nnc4nc(N5CCOCC5)sc43)s2)CCO1	23.7 µM (inactive)	> 100 µM (inactive)				73.3 µM (inactive)		
O=c1[nH]c(-c2ccc([N+](=O)[O-])cc2)nc2ccc(Cl)cc12			> 100 µM (inactive)	> 100 µM (inactive)	> 100 µM (inactive)			
O=CN/C=C/c1ccccc1O			> 100 µM (inactive)	> 100 µM (inactive)	> 100 µM (inactive)			> 100 µM (inactive)
